# According to patent US20100041613A1, “NOVEL ANTIBIOTIC COMPOSITIONS” (priority 2006, published 2010):
# Key:
# [1] = test system: vancomycin resistant Enterococcus faecalis (VRE) ATCC#51575; experiment: organism not typed; assay type: cell-based
# Protocol: (§1) Antibiotic compositions of the invention were tested for antimicrobial activity against methicillin resistant Staphylococcus aureus (MRSA) ATCC#33591 and vancomycin resistant Enterococcus faecalis (VRE) ATCC#51575. Pathogen cultures were grown in tryptic soya broth (TSB) with 5 g/L NaCl (TSB+) overnight (˜18 hrs) at 37° C. The cultures were removed from the incubator and refrigerated at least 3 hours to stop further culture growth. Determined aliquot ratios of culture to broth to obtain approximately 2.5×10^5 CFU/ml., for which accurate counts were measured by serial dilution onto Tryptic Soy Agar with 5 g/L NaCl (TSA+) plates. Two fold dilution series' of […] were prepared for MRSA and VRE, respectively. All components except thiazolyl blue tetrazolium bromide (MTT) were added to the wells prior to an initial overnight incubation at 37° C. MTT was added to each well, 29 μl or […], for MRSA or VRE plates, respectively, followed by 1 hour incubation at 37° C. Vancomycin and/or Zyvoxam were included as reference compounds with vancomycin prepared in the same way as the test compounds. Zyvoxam was supplied as a 2 mg/ml solution. Minimum inhibitory concentration (MIC) endpoints were read as the lowest concentration showing no visible growth.
# [2] = test system: methicillin resistant Staphylococcus aureus (MRSA) ATCC#33591; experiment: microbe, parasite or virus in culture; assay type: cell-based
# Protocol: as §1
# [3] = VRE, lowest concentration showing no visible growth, overnight incubation at 37° C.
# [4] = MRSA, lowest concentration showing no visible growth, overnight incubation at 37° C.
compound,measurement,setting,value
"C=C1NC(=O)[C@H]([C@@H](C)CC)NC(=O)[C@H](NC(=O)C(=CC)NC(=O)[C@@H](N)[C@@H](C)CC)CSC[C@@H](C(=O)N[C@H]2C(=O)N3CCC[C@H]3C(=O)NCC(=O)N[C@H](C(=O)N[C@@H](CCCCN)C(=O)NCCCCCCNC(=O)[C@H]3NC(=O)[C@H]4NC(=O)[C@H](NC(=O)[C@@H]5NC(=O)[C@H](CC(N)=O)NC(=O)[C@H](NC(=O)[C@@H](CC(C)C)NC)[C@H](O)c6ccc(c(Cl)c6)Oc6cc5cc(c6O[C@@H]5O[C@H](CO)[C@@H](O)[C@H](O)[C@H]5O[C@H]5C[C@](C)(N)[C@H](O)[C@H](C)O5)Oc5ccc(cc5Cl)[C@H]4O)c4ccc(O)c(c4)-c4c(O)cc(O)cc43)CSC2C)NC(=O)[C@H](CC(C)C)NC1=O (stereo partly shown) [Example 2, nisin(1-12)-1,6-diaminohexane-vancomycin]",minimum inhibitory concentration against VRE,"[1]; vancomycin resistant (VRE) ATCC#51575, 18 h",20 µg/mL
same,minimum inhibitory concentration against MRSA,"[2]; methicillin resistant ATCC#33591, 18 h",0.04 µg/mL
nisin,minimum inhibitory concentration against VRE,[1]; [3],5 to 10 µg/mL
same,minimum inhibitory concentration against MRSA,[2]; [4],0.3 to 0.6 µg/mL
CN[C@H](CC(C)C)C(=O)N[C@H]1C(=O)N[C@@H](CC(N)=O)C(=O)N[C@H]2C(=O)N[C@H]3C(=O)N[C@H](C(=O)N[C@H](C(=O)O)c4cc(O)cc(O)c4-c4cc3ccc4O)[C@H](O)c3ccc(c(Cl)c3)Oc3cc2cc(c3O[C@@H]2O[C@H](CO)[C@@H](O)[C@H](O)[C@H]2O[C@H]2C[C@](C)(N)[C@H](O)[C@H](C)O2)Oc2ccc(cc2Cl)[C@H]1O [vancomycin],MIC,[1]; read-out: minimum inhibitory concentration against VRE,500 µg/mL
same,MIC,"[2]; Staphylococcus aureus, read-out: minimum inhibitory concentration against MRSA",1.2 µg/mL
CC(=O)NC[C@H]1CN(c2ccc(N3CCOCC3)c(F)c2)C(=O)O1 [zyvoxam],minimum inhibitory concentration against VRE,[1]; [3],1.2 µg/mL
same,minimum inhibitory concentration against MRSA,[2]; [4],0.3 µg/mL
Nisin[1-12] polypeptide fragment,highest concentration at which VRE was not inhibited,"[1]; VRE, did not inhibit at as high as the stated concentration",> 40 µg/mL
same,highest concentration at which MRSA was not inhibited,"[2]; MRSA, did not inhibit at as high as the stated concentration",> 10 µg/mL
